Data as given in patent US7358233B2, “Tetronic acid derivative” (Toudai TLO, Ltd, priority 2001, dated 2008).

What was measured:
[1] = system: HT-29 cells; test: Combined use of VST and cisplatin, colony-forming ability of HT-29 cells; type: cell-based; settings: glucose starvation condition
Source text: Enhancement of endoplasmic reticulum stress response promotes survival of cells under undernutritive conditions, and at the same time allows cells to acquire resistance to antitumor agents. Therefore, the inventors intended to examine the effect of VST on known antitumor agents. […] Therefore, the combined effect with other pharmaceutical agents could not be duly examined. Thus, cisplatin generally used for solid cancer treatment was used to examine the combined effect, due to its activity on cancer cells that is maintained even under low glucose conditions. Specifically, HT-29 cells were cultured by the above-mentioned method, pretreated for 30 min with VST, and then cultured for 18 hours. The cells were then treated for 4 hours with each concentration of cisplatin, and a week later their colony-forming ability was examined.

[2] = system: HT-29 cells; test: Antitumor effect against HT-29 cells transplanted into nude mice; type: in vivo; settings: HT-29 tumor grown to 100 mm^3 in nude mice; VST through the tail vein (FIG. 15)
Method: The antitumor effect of VST at the animal level was examined. Specifically, HT-29 cells were transplanted into nude mice and tumor was grown to 100 mm^3. Subsequently, each concentration of VST was administered through the tail vein, progress of cancer was followed each day thereafter, and the tumor was enucleated to compare its size. […] Furthermore, the combined effect with CDDP (cisplatin) was examined.

N.N.[Cl][Pt][Cl] [cisplatin, reference compound]
activity on colony-forming ability under glucose starvation condition [1]: enhance the activity | antitumor effect (tumor size) [2]: sufficient
